Measured values: patent US7772183B2 (Bristol-Myers Squibb Company, priority 2005, dated 2010)

Legend:
[1] = biological target: T1, HCV NS3/4A protease complex, BMS strain (UniProt P27958, species not given/STRAIN_BMS); assay: FRET peptide assay to monitor HCV NS3/4A proteolytic activity (BMS strain); type: biochemical, Hepatitis C virus (genotype 1a); conditions: NS3/4A BMS strain; read-out: IC50 Range
T1 construct: said of H77 and J4L6S; fused on or other part: A three-lysine solubilising tail at the C-terminus of NS4A and a His tag (pET21b, Ni-NTA purification)
T1 sequence (P27958 1027-1657, change not shown, one chain of several): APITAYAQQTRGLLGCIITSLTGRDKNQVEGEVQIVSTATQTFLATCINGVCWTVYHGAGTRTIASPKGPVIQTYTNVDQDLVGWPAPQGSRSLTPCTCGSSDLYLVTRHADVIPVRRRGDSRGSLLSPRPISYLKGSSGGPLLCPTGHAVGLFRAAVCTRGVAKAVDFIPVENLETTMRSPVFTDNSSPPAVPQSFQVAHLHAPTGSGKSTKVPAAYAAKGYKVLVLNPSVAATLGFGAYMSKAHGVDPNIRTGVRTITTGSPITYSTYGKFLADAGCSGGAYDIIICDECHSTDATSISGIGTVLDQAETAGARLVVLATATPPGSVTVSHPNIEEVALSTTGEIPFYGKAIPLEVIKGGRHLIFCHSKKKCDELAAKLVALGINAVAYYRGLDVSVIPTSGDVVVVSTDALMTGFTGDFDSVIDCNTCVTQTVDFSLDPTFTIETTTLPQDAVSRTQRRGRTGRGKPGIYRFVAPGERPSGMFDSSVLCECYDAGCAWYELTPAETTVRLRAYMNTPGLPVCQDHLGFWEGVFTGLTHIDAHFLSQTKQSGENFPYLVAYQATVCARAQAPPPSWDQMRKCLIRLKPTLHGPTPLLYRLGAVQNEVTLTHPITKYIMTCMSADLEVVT
How it was run: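 Recombinant NS3/4A complexes (aa 1027–1711) from H77 (1a) and J4L6S (1b) carried a three-lysine tail, C1711G and C1454S. They were expressed in E. coli BL21(DE3) (0.5 mM IPTG, 22 h, 20 °C), then purified by Ni-NTA and Superdex-S200 to >90% purity. The BMS strain was a genotype 1a clone from patient serum.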

[2] = tested on: HCV replicon in HUH-7 cells; assay: HCV replicon FRET assay; type: cell-based, Hepatitis C virus (strain 1b); conditions: Hepatitis C virus, Huh-7; HCV replicon, for compounds tested; read-out: EC50 Range
How it was run: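 HUH-7 cells stably carrying a genotype 1b subgenomic HCV replicon (NS3–NS5B) treated with compound for 4 days at 37° C, 0.5% DMSO final. Cytotoxicity (CC50) read by alamar Blue; cells then lysed with 10 μM FRET HCV protease peptide substrate and kinetically read (340/490 nm) for EC50.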

Compound: CC(C)(C)OC(=O)N[C@H]1COCCC/C=C\[C@@H]2C[C@@]2(C(=O)NS(=O)(=O)C2CC2)NC(=O)[C@@H]2C[C@@H](OC(=O)N3CCc4ccccc43)CN2C1=O [Compound 45, 18-(indolinecarbonyloxy)-14-tert-butoxycarbonylamino-4-cyclopropylsulfonylaminocarbonyl-2,15-dioxo-3,16-diaza-12-oxatricyclo-[14.3.0.0^4,6]-nonadec-7-ene]
- IC50 [1]: < 100 nM
- melting point: 128 to 130 °C
- EC50 [2]: 100 to 1000 nM
